Results published in publication PMC11863921 (BMC Biology, 2025).
Entries after “also recorded” stand apart in the source; their conditions may differ.

Target: T1, AsolRXFP/LGR3 (Acanthaster planci, UniProt A0A8B7XXQ8)
T1 sequence (A0A8B7XXQ8 1-847): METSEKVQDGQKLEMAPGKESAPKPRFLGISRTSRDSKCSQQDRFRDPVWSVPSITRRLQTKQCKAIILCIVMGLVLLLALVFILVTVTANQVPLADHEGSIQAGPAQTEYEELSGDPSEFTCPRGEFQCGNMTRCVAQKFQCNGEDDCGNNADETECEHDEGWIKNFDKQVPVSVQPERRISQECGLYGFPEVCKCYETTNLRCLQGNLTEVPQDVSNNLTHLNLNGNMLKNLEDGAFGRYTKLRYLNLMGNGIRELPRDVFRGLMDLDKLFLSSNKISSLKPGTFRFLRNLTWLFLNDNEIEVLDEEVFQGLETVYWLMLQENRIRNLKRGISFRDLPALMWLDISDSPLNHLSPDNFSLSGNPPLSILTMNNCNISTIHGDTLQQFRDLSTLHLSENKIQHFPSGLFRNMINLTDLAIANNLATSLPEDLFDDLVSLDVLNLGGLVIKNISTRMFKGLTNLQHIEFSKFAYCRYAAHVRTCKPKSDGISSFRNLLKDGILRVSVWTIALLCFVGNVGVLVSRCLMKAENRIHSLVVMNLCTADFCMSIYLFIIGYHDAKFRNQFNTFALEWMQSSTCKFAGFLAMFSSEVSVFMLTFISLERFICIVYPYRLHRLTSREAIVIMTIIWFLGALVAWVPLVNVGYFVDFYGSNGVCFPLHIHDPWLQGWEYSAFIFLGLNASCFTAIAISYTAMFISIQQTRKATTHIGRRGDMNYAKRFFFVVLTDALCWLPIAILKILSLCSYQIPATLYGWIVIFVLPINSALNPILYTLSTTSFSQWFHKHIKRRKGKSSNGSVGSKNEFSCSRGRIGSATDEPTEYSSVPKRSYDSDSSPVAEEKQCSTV
Experiment: CRE reporter gene assay in CHO cells stably expressing AsolRXFP/LGR3
Type: cell-based, A. cf. solaris
Conditions: for cAMP activity / CRE reporter gene activation: increasing concentrations
Protocol: Human embryonic kidney (HEK) 293T cells were grown in complete Dulbecco’s modified Eagle medium (DMEM; Gibco) and Chinese hamster ovary (CHO) cells in complete DMEM/F12 (Gibco). Media was supplemented with 10% fetal bovine serum, 1% penicillin/streptomycin, and 1% L‐glutamine (complete media; All from Gibco). HEK-293T cells were transfected with LipofectAMINE 2000 (Invitrogen) and CHO cells with CHO TransIT and CHO-Mojo (Mirus), both according to the manufacturer’s instructions.
CHO and HEK293T cells stably expressing AsolRXFP/LGR3 were generated by lentiviral transduction. HEK293T cells were plated in 10 cm dishes for transfection with pLenti X1-Ef1α-COT-RXFP-like 2-IRES-GFP along with the lentiviral packaging and envelope plasmids pMDL, pRSV‐Rev, and pCMV‐VSV‐G, using Lipofectamine 2000. The following day, media containing lentivirus was harvested and filtered through a 0.45 μm syringe filter. Fresh CHO and HEK293T cells in 10 cm plates were transduced by replacing the cell culture media with the filtered media containing lentivirus, mixed with 4 μg/mL hexadimethrine bromide (Polybrene) to increase transduction efficiency. Three rounds of transduction were performed over 32 h, before cells were allowed to recover for three days in complete media. Transduced cells were sorted from non-transduced cells using the GFP reporter by fluorescence-activated cell sorting (FACS), using a Becton Dickinson FACSAria III as previously described. Single, live cells with low GFP expression were selected to represent low AsolRXFP/LGR3 expression and were subsequently grown to confluency in a T175 flask and cryopreserved.
The ability of the A. cf. solaris receptors to respond to A. cf. solaris RGP1 and RGP2 peptides was tested using a pCRE β-galactosidase reporter gene assay in CHO cells stably expressing AsolRXFP/LGR3 or HEK-293T cells transfected with AsolRXFP/LGR4 (long) or AsolRXFP/LGR4 (short), as described in detail previously. Importantly, the pCRE β-galactosidase reporter gene assay measures both Gs and Gq activation downstream of GPCR activation by monitoring CREB-mediated gene transcription. Cells were seeded in 96 well plates and were left to grow overnight at 37 °C in an incubator with 5% CO2. The next day the cells were transfected with different amounts of the pCRE reporter gene DNA [57] and/or pcDNA3.1 receptor constructs, as described above, and were left to grow overnight in an incubator. Triplicate wells in each plate were transfected with the equivalent amount of pCRE reporter gene DNA and pcDNA3.1 without a receptor-encoding insert as the background CRE activity control. The next day cells were exposed in triplicate wells to increasing concentrations of peptides diluted in media for 6 h at 37 °C in an incubator. Triplicate parallel wells contained 5 µM forskolin and blank media as positive and negative controls, respectively. At the end of the incubation period, the media was aspirated, and the plate was stored at − 80 °C until development. Plates were thawed for the development of β-galactosidase activity, as described previously, with absorbance being read at 570 nm on an Epoch 2 microplate reader. The data were analyzed as the percentage of the response induced by 5 µM forskolin and pooled followed by fitting to a three-parameter sigmoidal dose–response curve using GraphPad Prism 10. Experiments were performed at least three times with triplicate determinations in each assay (Additional file 17: Dataset S10).

Substance | cAMP activity / CRE reporter gene activation (CHO-AsolRXFP/LGR3 cells) | relative potency/efficacy as ligand for AsolRXFP/LGR3 (compared with RGP1) | efficacy (Emax) (CHO-AsolRXFP/LGR3 cells, 5 µM forskolin = reference, n = 6)
Acanthaster cf. solaris Relaxin-like gonad-stimulating peptide 2 [AsolRGP2] | only at high concentrations; also recorded: small but significant response but no clear dose–response | much lower than that of RGP1 | 
Acanthaster cf. solaris Relaxin-like gonad-stimulating peptide 1 [AsolRGP1] | concentration-dependent cAMP activity; also recorded: dose-dependent increase in CRE reporter gene activation |  | 38.6 ± 6.9 % forskolin response
